The record followed here is article PMC7374060, “An Antivirulence Approach for Preventing Cryptococcus neoformans from Crossing the Blood-Brain Barrier via Novel Natural Product Inhibitors of a Fungal Metalloprotease” (mBio, 2020).

This assay concerns the target T1, Mpr1 (Cryptococcus neoformans, UniProt J9VXZ9).
T1 construct: gene CNAG_04735; recombinant His-tagged Mpr1 secreted from Pichia pastoris expressing CnMPR1-HIS cDNA
Description: FITC-casein proteolysis assay with purified recombinant Mpr1-His. The assay is classed as biochemical.

T1 sequence (J9VXZ9 entry or part of it): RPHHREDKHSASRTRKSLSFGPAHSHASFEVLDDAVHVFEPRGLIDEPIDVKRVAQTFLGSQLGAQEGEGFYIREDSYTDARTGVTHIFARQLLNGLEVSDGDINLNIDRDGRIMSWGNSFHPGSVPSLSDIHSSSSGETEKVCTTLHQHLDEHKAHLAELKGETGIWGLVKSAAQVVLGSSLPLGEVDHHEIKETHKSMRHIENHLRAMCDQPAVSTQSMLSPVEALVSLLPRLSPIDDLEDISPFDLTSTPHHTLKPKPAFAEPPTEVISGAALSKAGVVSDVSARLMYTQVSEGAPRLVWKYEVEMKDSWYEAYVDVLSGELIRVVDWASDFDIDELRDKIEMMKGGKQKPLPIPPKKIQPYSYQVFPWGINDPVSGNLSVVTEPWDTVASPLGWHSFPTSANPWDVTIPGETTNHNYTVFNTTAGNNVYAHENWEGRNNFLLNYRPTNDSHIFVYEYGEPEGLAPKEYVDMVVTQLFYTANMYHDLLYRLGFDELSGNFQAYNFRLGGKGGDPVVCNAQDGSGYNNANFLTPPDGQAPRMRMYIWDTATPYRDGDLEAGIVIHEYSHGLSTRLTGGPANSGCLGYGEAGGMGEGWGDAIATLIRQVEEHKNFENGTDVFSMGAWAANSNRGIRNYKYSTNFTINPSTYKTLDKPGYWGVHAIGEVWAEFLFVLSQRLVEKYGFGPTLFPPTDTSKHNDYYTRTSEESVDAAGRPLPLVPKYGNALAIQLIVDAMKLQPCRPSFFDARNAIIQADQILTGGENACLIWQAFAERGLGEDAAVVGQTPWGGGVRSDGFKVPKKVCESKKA

Turning to `CC(C)C1=CC2=CC[C@@H]3[C@](C)(CCC[C@@]3(C)C(=O)O)[C@H]2CC1` [NP001-1C11, abietic acid], the IC50 was determined as 5.14 µM.

`C[C@@H]1CC[C@@]2(OC1)O[C@H]1C[C@H]3[C@@H]4CC=C5C[C@@H](O)CC[C@]5(C)[C@H]4CC[C@]3(C)[C@H]1[C@@H]2C` [NP002-1D9, diosgenin]: the IC50 is 5.03 µM.

On to `OC[C@@H]1CCCN2CCCC[C@H]12` [NP003-2B11, lupinine], for which the half-maximal inhibitory concentration (IC50) is 9.66 µM.

A word on the IC50: it is the concentration needed to halve the response being measured.
